Patent US5521163A, “Antiviral pyrimidine nucleosides and methods for using same” (University of Birmingham, priority 1994, dated 1996)

How the values were obtained:
VZV = assay: Plaque reduction assay, VZV clinical isolates in MRC-5 cells; format: cell-based, varicella zoster virus; conditions: read-out: IC50 VZV, Table 1, β-anomers
Procedure: Clinical isolates of varicella zoster virus (VZV) were assayed in monolayers of MRC-5 cells. MRC-5 cells are derived from human embyonic lung tissue. A plaque reduction assay was used in which a suspension of the virus stock was used to infect monolayers of the cells in multiwell trays. a range of concentrations of the compound under test of known molarity was added to the wells. Plaque numbers at each concnetration were expressed as percentages of the control and a dose response curve was constructed. From these curves the 50% inhibitory concentration of each drug was determined.

HSV1 = assay: Plaque reduction assay, HSV-1 (strain SC16) in cell monolayers; format: cell-based, Herpes Simplex Virus type 1; conditions: Human alphaherpesvirus 1, SC16, Table 1; β-anomers; HSV-1 strain SC16, plaque reduction
Procedure: (§1) Herpes Simplex Virus types 1 (HSV 1) and 2 (HSV2) were assayed in monolayers of Veto cells in multiwell trays. The virus strains used were SC16 and 186 for HSV-1 and HSV-2 respectively. Activity of compounds was determined in the plaque reduction assay, in which a cell monolayer was infected with a suspension of the appropirate HSV, and then overlaid with nutrient agarose in the form of a gel to ensure that there was no spread of virus throughout the culture. A range of concentrations of compound of known molarity was incorporated in the nutrient agarose overlay. Plaque numbers at each concentration were expressed as percentages of the control and a dose-response curve was drawn. From this curve the 50% inhibitory concentration (IC50) was estimated to be 0.66 μm for the compound of formula (I) in which X represents a 2-bromovinyl group.

HSV2 = assay: Plaque reduction assay, HSV-2 (strain 186) in cell monolayers; format: cell-based, Herpes Simplex Virus type 2; conditions: Human alphaherpesvirus 2, Table 1; β-anomers; HSV-2 strain 186, plaque reduction
Procedure: as §1

Herpes Simplex Virus = assay: Plaque reduction assay, HSV (type not given); format: cell-based, Herpes Simplex Virus types 1 (HSV 1) and 2 (HSV2); conditions: read-out: 50% inhibitory concentration (IC50)
Procedure: as §1

Structure (SMILES) | IC50 (VZV) | IC50 (HSV1) | IC50 (HSV2) | IC50 (Herpes Simplex Virus)
CCc1cn([C@H]2C[C@H](O)[C@@H](CO)S2)c(=O)[nH]c1=O [X=CH2 CH3, Y=OH, 2'-Deoxy-5-ethyl-4'-thiouridine] | 990 nM |  |  | 
O=c1[nH]c(=O)n([C@H]2C[C@H](O)[C@@H](CO)S2)cc1/C=C/Br [X=CH=CHBr, Y=OH, E-5-(2-bromovinyl)-2'-deoxy-4'-thiouridine] |  | 600 nM | 10000 to 100000 nM | 660 nM
Nc1nc(=O)n([C@H]2C[C@H](O)[C@@H](CO)S2)cc1/C=C/Br [X=CH=CHBr, Y=NH2, 2'-Deoxy-5-E-(2-bromovinyl)-4'-thiocytidine] |  |  | > 10000 nM | 
